Laboratory results taken from publication PMC9688475, “Identification and Analysis of Small Molecule Inhibitors of CRISPR-Cas9 in Human Cells” (Cells, 2022).
pIC50: −log10 of the molar value.

What was measured:
[1] = tested on: EGFP expression in uninduced reporter 293T cells; assay: EGFP expression in uninduced reporter 293T cells; format: cell-based, human; conditions: for effect on EGFP expression in uninduced cells: 40 μM
Protocol: The reporter 293T cells were seeded into 96-well plates at a density of 10,000 cells per well and cultured overnight before the addition of DMSO alone or various compounds (in DMSO solution) at appropriate concentrations (0.125–100 μM) with or without 2 μg/mL doxycycline for an additional 72 h of incubation. The cells were then harvested for analysis with the CytoFLEX flow cytometer (Beckman Coulter, Brea, CA, USA) or analyzed by western blot with antibodies as indicated. […] The inhibiting efficiency in reporter 293T cells was calculated using the following equation: E’ = (P2 − P1)/(P0 − P1) × 100%, where E’ is the inhibiting efficiency in reporter 293T cells, and P0, P1, and P2 are the GFP positive cell ratio of the uninduced group, Dox and DMSO treated control group, and Dox and compound treated group, respectively.

SpCas9 [2] = molecular target: T1, SpCas9 (Streptococcus pyogenes serotype M1, UniProt Q99ZW2); assay: Inhibition of SpCas9 nuclease activity in EGFP/iCas9/gRNA-EGFP reporter 293T cells (flow cytometry); format: cell-based; set-up: expressed in transfected cells; host or cells: H2AX-EGFP HEK293T cells, lentiviral transduction, doxycycline-induced
T1 sequence (Q99ZW2 whole entry): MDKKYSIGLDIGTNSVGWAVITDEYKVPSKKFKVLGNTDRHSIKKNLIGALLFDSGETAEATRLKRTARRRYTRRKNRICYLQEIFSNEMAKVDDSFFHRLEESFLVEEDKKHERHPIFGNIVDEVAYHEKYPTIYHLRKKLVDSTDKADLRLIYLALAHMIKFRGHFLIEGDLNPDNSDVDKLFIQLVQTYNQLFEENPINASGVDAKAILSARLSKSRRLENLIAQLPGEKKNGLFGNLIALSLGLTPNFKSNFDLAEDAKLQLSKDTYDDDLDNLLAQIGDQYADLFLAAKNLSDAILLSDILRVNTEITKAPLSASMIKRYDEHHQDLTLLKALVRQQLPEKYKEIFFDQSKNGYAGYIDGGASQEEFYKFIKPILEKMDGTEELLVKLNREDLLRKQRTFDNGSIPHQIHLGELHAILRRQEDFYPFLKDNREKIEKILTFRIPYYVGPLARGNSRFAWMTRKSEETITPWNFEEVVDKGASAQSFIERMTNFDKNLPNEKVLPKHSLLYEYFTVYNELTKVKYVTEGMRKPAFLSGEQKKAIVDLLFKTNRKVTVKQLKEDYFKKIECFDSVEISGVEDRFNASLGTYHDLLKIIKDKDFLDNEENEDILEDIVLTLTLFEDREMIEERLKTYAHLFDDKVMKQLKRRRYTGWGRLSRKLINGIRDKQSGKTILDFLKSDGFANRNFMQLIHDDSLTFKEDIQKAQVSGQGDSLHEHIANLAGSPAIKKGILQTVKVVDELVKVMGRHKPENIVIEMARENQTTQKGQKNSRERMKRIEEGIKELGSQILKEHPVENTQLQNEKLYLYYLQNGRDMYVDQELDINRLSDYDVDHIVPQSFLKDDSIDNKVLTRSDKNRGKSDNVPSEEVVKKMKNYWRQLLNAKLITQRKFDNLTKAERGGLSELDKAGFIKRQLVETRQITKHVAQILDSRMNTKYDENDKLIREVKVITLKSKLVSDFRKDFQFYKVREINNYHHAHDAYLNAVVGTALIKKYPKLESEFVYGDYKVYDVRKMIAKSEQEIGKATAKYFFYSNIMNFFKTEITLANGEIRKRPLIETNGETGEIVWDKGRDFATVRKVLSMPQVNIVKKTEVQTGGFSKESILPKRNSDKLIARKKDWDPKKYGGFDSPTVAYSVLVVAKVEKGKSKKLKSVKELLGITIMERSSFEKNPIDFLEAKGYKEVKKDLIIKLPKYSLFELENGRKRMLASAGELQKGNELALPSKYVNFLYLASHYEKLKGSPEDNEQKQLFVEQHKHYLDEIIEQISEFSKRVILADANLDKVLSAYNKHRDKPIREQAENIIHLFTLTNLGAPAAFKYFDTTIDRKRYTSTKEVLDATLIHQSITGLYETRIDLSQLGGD
Source text: The H2AX-EGFP 293T cell line was first generated using the previously reported MMEJ-mediated CRIS-PITCh system. Briefly, we cloned two gRNAs (Supplementary Table S3) that respectively target H2AX gene and the PITCh vector into the px330 plasmid (Addgene, #42230). The PITCh vector contains a pair of 20-bp homologous sequences targeting the upstream and downstream regions of the H2AX gRNA cleavage site, and the SFB-EGFP expression cassette. The three plasmids were co-transfected into 293T cells at an equimolar ratio. GFP-positive cells were sorted by FACS and individually expanded to isolate single clones for genomic DNA extraction and PCR verification of successful knock-in (KI) of the SFB-EGFP cassette into 5′-end of first exon of the H2AX gene. The selected H2AX-EGFP 293T cell clone was subsequently infected with lentiviruses encoding tetracycline-inducible SpCas9 (iCas9). After drug selection, individual clones were again expanded and verified for inducible Cas9 expression. The selected clone was subsequently infected with lentivirus encoding a gRNA that targets EGFP. Puromycin-resistant clones ([…], Thermo Fisher Scientific) were then isolated after >7 days for further analysis.

SpCas9 [3] = molecular target: T1, SpCas9; assay: SpCas9 in vitro DNA cleavage assay; format: biochemical; set-up: His6 (N); TEV site (N); made in house; host or cells: E. coli BL21 Star (DE3)
Protocol: The assay was carried out in NEBuffer 3 (New England Biolabs, Ipswich, MA, USA). First, 19.2 μL of the SpCas9–gRNA (58.8 nM) mixture was incubated with 2.4 μL of various compounds (dissolved in DMSO) at desired concentrations (0.1–2 mM) at room temperature for 10 min. Then, 2.4 μL of 3.48 nM ApaI-linearized px458 plasmid was added for further incubation at 37 °C for 60 min. The reaction was terminated by adding 0.5 μL Proteinase K (20 mg/mL) (Invitrogen) and incubation at 55 °C for 15 min. The reaction products were resolved on a 0.7% TAE agarose gel, stained with Gel Red (Biotium, Fremont, CA, USA). Then the products were visualized by Chemidoc XRS plus system (Bio-Rad, Hercules, CA, USA), and band intensities were quantified using ImageJ software (National Institutes of Health developed; Bethesda, MD, USA). The inhibition efficiency in the cleavage assays was calculated using the following equation: E = (C1 − C2)/C1 × 100%, where E is the inhibition efficiency, and C1 and C2 are the cleavage rate of the DMSO group and compound treated group, respectively.
The cleavage rate was calculated using the following equation:C = (B1 + B2)/(B0 + B1 + B2) × 100%, where C is the cleavage rate, B0, B1, and B2 are the band intensities of uncleaved products, upper cleaved products, and lower cleaved products, respectively.

XbaI = XbaI in vitro cleavage assay; format: biochemical; conditions: compound 200 μM
Protocol: (§1) In vitro cleavage experiments used commercial restriction enzymes (Thermo Fisher Scientific). The restriction enzyme NotI or XbaI (0.1 μL) was mixed with the compounds in a FastDigest buffer (Thermo Fisher Scientific). It was then incubated at room temperature for 10 min, and an ApaI-linearized px458 plasmid was added and reacted at 37 °C for 15 min. The samples were mixed with a DNA loading buffer. The cleavage products were electrophoresed on 1% TAE agarose gel and imaged using a Bio-Rad gel imager.

NotI = NotI in vitro cleavage assay; format: biochemical; conditions: compound 200 μM
Protocol: as §1

[4] = tested on: Streptococcus pyogenes Cas9 (SpCas9); conditions: inhibits SpCas9 by blocking its binding to DNA; ref [33]; cited from earlier work

Molecule: Cc1ccc(C(=O)/C(C#N)=N\Nc2ccc([N+](=O)[O-])cc2)cc1 [SP15]
- effect on EGFP expression in uninduced cells ([1]; uninduced): reduce EGFP expression (albeit slightly)
- SpCas9 inhibition in reporter cells (SpCas9 [2]; 10 μM, Dox 2 μg/mL, 72 h): 50%

Molecule: O=C(C(=NNc1ccc([N+](=O)[O-])cc1)n1cncn1)c1ccc(F)cc1F [C12d, 1-(2,4-difluorophenyl)-2-(2-(4-nitrophenyl)hydrazono)-2-(1H-1,2,4-triazol-1-yl)ethanone]
- inhibitory activity in in vitro SpCas9 cleavage (in words) (SpCas9 [3]; compound 200 μM): weakly inhibited

Molecule: O=C(C=NNc1ccc(Cl)cc1)c1ccc(Br)cc1 [C12b, 1-(4-bromophenyl)-2-(2-(4-chlorophenyl)hydrazono)ethanone]
- melting point: 235.2 to 237.2 °C
- inhibitory activity in in vitro SpCas9 cleavage (in words) (SpCas9 [3]; compound 200 μM): strong inhibitory activities
- inhibition at 200 µM (SpCas9 [3]; read-out: inhibition rate, in vitro SpCas9 cleavage): 89%

Molecule: Cc1nc2ccc(N=NC3=C(O)CCCC3=O)cc2s1 [SP33]
- SpCas9 inhibition in reporter cells (SpCas9 [2]; 40 μM, Dox 2 μg/mL, 72 h): less than 50%

Molecule: O=C1CCCC/C1=N/Nc1ccc(N2CCCCC2)cc1 [SP5]
- SpCas9 inhibition in reporter cells (SpCas9 [2]; 40 μM, Dox 2 μg/mL, 72 h): less than 50%

Molecule: CCCCOC(=O)c1ccc(NN=c2c(=O)c3ccccc3c2=O)cc1 [SP11]
- SpCas9 inhibition in reporter cells (SpCas9 [2]; 40 μM, Dox 2 μg/mL, 72 h): less than 50%

Molecule: CC1(C)CC(=O)C(N=Nc2ccc3ncsc3c2)=C(O)C1 [SP36]
- SpCas9 inhibition in reporter cells (SpCas9 [2]; 40 μM, Dox 2 μg/mL, 72 h): less than 50%

Molecule: O=C1CCCC/C1=N\Nc1ccc([N+](=O)[O-])cc1 [SP6]
- SpCas9 inhibition in reporter cells (SpCas9 [2]; 40 μM, Dox 2 μg/mL, 72 h): less than 50%

Molecule: O=C(Oc1ccc(/C=N/Nc2ccccc2)cc1)c1cc([N+](=O)[O-])cc([N+](=O)[O-])c1 [SP32]
- SpCas9 inhibition in reporter cells (SpCas9 [2]; 10 μM, Dox 2 μg/mL, 72 h): less than 50%
- SpCas9 inhibition in reporter cells (SpCas9 [2]; 40 μM, Dox 2 μg/mL, 72 h): > 50%

Molecule: O=C(C=NNc1cc([N+](=O)[O-])ccc1O)c1ccc(Br)cc1 [C12c, 1-(4-bromophenyl)-2-(2-(2-hydroxy-5-nitrophenyl)hydrazono)ethanone]
- effect on EGFP expression in uninduced reporter 293T cells ([1]; uninduced, concentration not given): did not negatively affect
- melting point: 246.6 to 247.2 °C
- inhibitory activity in in vitro SpCas9 cleavage (in words) (SpCas9 [3]; compound 200 μM): weakly inhibited
- inhibition at 40 µM (SpCas9 [2]; HEK-293T, read-out: SpCas9 inhibition in reporter cells): ~50%

Molecule: COc1ccc(C(=O)Oc2ccccc2/C=N\Nc2ccc([N+](=O)[O-])cc2)cc1 [SP8]
- SpCas9 inhibition in reporter cells (SpCas9 [2]; 40 μM, Dox 2 μg/mL, 72 h): less than 50%

Molecule: 1-(2-(4-nitrophenyl) hydrazono)-4-bromo-acetophenone [C12]
- activity of XbaI (XbaI): not affected
- activity of NotI (NotI): not affected
- effect on EGFP expression in the absence of Dox induction ([1]; 100 μM, reporter cells, no Dox): no effects
- inhibition rate, in vitro SpCas9 cleavage (SpCas9 [3]; compound 200 μM, SpCas9–gRNA 58.8 nM, linearized plasmid 3.48 nM): 84%
- efficiency of SpCas9 inhibition in reporter cells (SpCas9 [2]; 100 μM, Dox 2 μg/mL, 72 h): 17.1%

Molecule: O=C1CCCC/C1=N/Nc1ccc(OC2CCCCC2)cc1 [SP9]
- SpCas9 inhibition in reporter cells (SpCas9 [2]; 10 μM, Dox 2 μg/mL, 72 h): less than 50%
- SpCas9 inhibition in reporter cells (SpCas9 [2]; 40 μM, Dox 2 μg/mL, 72 h): > 50%

Molecule: Cc1cccc(N/N=C(/C#N)C(=O)c2ccc(Br)cc2)c1 [SP12]
- SpCas9 inhibition in reporter cells (SpCas9 [2]; 10 μM, Dox 2 μg/mL, 72 h): less than 50%
- SpCas9 inhibition in reporter cells (SpCas9 [2]; 40 μM, Dox 2 μg/mL, 72 h): > 50%

Molecule: CC1=NN(c2ccccc2)C(=O)C1N=Nc1nc2ccccc2s1 (stereo not drawn) [SP29]
- effect on EGFP expression in uninduced cells ([1]; uninduced): reduce EGFP expression (albeit slightly)
- SpCas9 inhibition in reporter cells (SpCas9 [2]; 10 μM, Dox 2 μg/mL, 72 h): 50%

Molecule: O=C1CCCC/C1=N\Nc1ccc(OCc2ccccc2)cc1 [SP19]
- SpCas9 inhibition in reporter cells (SpCas9 [2]; 40 μM, Dox 2 μg/mL, 72 h): less than 50%

Molecule: BRD0539
- pIC50 [4]: 4.66

Molecule: CCC(=O)C=NNc1ccc([N+](=O)[O-])cc1 [C9, 1-(2-(4-nitrophenyl) hydrazono)butanone]
- melting point: 190.3 to 191.7 °C

Molecule: CCOC(=O)c1oc2c(c1C)/C(=N\Nc1ccc([N+](=O)[O-])cc1)CCC2 [SP34]
- SpCas9 inhibition in reporter cells (SpCas9 [2]; 40 μM, Dox 2 μg/mL, 72 h): less than 50%

Molecule: COc1cc(Cl)ccc1N=NC1C(=O)N(c2ccccc2)N=C1C (stereo not drawn) [SP28]
- SpCas9 inhibition in reporter cells (SpCas9 [2]; 40 μM, Dox 2 μg/mL, 72 h): less than 50%

Molecule: COc1ccc(C(=O)/C(C#N)=N/Nc2ccccc2[N+](=O)[O-])cc1 [SP14]
- effect on EGFP expression in uninduced cells ([1]; uninduced): reduce EGFP expression (albeit slightly)
- SpCas9 inhibition in reporter cells (SpCas9 [2]; 10 μM, Dox 2 μg/mL, 72 h): 50%
